“Also recorded” adds a separate entry of the source. Like-named read-outs stand apart in the source and are kept apart here. Marks after values point to notes of the source that are not given here.
Columns and labels:
[1] = test system: wild-type L. monocytogenes; assay: D-alanine competition experiment; details: 5 mM cyclooctyne amino acid, 0 or 20 mM D-alanine
Procedure: The bacteria were incubated with 5 mM cyclooctyne amino acid, in the presence of either 0 or 20 mM D-alanine, and labeled following the general procedure.
Bacteria were grown to an optical density (OD) of 0.4 in their respective media (7H9 for M. smegmatis, LB for C. glutamicum, BHI for L. monocytogenes) at 37° C. (M. smegmatis and L. monocytogenes) or 30° C. (C. glutamicum). Then, 5 mM D-amino acid was added (from a 1 M stock in H2O, 1 eq. NaOH was added to help solubilize compounds 12, 13, and 14) and the cells grown for one doubling time. The bacteria were then added to a 96-well V-bottom plate at 200 μL/well and pelleted by centrifugation at 3500 rpm for 3 min. The supernatant was removed and the cells resuspended in 200 μL PBS and pelleted again. This wash process was repeated twice more. The cells were then incubated with 100 μL of 20 μM azido-PEG3-carboxyrhodamine 110 (Click Chemistry Tools) in PBS (made by diluting a 1 mM stock in 9:1 PBS/DMSO) and placed in a 37° C. shaker for 1 h. Alternatively, for alkDala, labeling was performed by incubation with 100 μL of 20 μM azido-PEG3-carboxyrhodamine 110, 128 μM TBTA, 1 mM CuSO4, and 1.2 mM sodium ascorbate in PBS in a 37° C. shaker for 1 h. The cells were washed three times, then fixed with 4% paraformaldehyde for 10 min at rt. The cells were washed another three times, then studied by flow cytometry and microscopy.

[2] = Photophysical properties and fluorescence quantum yields of Si-rhodamines in PBS pH 7.4; type: physicochemical; details: for Φfl: cresyl violet in methanol as standard
Procedure: The fluorescence quantum yields of the purified amino, azido, and triazolyl Si-rhodamines were measured in pH 7.4 phosphate buffered saline (PBS) using cresyl violet in methanol (Φfl=0.54) as a standard (Table 1). […] The best candidate of the four, 8-azidonaphthyl-substituted Si-rhodamine 1, afforded only a 5-fold increase in fluorescence quantum yield as compared with the 29-fold enhancement observed with the corresponding fluorescein.
Fluorescence quantum yields were measured by creating 2 mM stocks of dyes in MeOH. The dyes were then diluted to 20 μM in PBS, then further diluted in PBS to various final concentrations. The absorbance and emission spectra of five different concentrations of dye were measured while keeping maximum absorbance under 0.2. Solutions of probe were excited at 600 nm, and emission was integrated from 600 to 800 nm. Plotting integrated emission vs. absorbance at 600 nm yielded a line, whose slope corresponds to the fluorescence quantum yield. Absolute quantum yields were determined by comparison with the slope of the line measured for cresyl violet in MeOH (Φfl=0.54). The reported quantum yields are the average of three sets of measurements. Absorbance spectra were recorded on a Varian Cary 50 UV-Visible spectrophotometer. Fluorescence spectra were recorded on a Photon Technology International Quanta Master 4 L-format scanning spectrofluorometer equipped with an LPS-220B 75-W xenon lamp and power supply, A-1010B lamp housing with an integrated igniter, switchable 814 photon counting/analog photomultiplier detection unit, and MD5020 motor driver. Measurements were made in 1 cm×0.4 cm quartz cuvettes with a total sample volume of 1 mL.

[3] = data from Shieh et al. 2014; cited from earlier work
CHO K1 cells = assay: No-wash cell surface labeling of SiaNAl residues, CHO K1; type: cell-based
Procedure: Si-rhodamine 10 was evaluated as a reagent for imaging SiaNAl residues on live cell surfaces. CHO K1 cells were incubated with 50 μM Ac4ManNAl for 3 days, washed, and then incubated with 5 μM 10, 50 μM CuSO4, 300 μM BTTAA, and 1 mM sodium ascorbate. […] Cell-surface glycan labeling was visualized as it occurred in real time (FIG. 14). Background labeling was minimal on control cells treated with N-acetylmannosamine (Ac4ManNAc) (FIG. 13).

HEK 293T cells = assay: No-wash live cell surface labeling and mitochondrial co-staining, HEK 293T; details: HEK 293T
Procedure: Cells were grown in 8-well Lab-Tek Chambered Coverglass systems in media (HAM-F12 for CHO K1 cells, DMEM for HEK 293T cells) containing 10% fetal bovine serum, penicillin/streptomycin, and either 50 μM Ac4ManNAl or Ac4ManNAc for 3 d at 37° C., as described previously. The cells were then washed with 3×300 μL PBS, then incubated with 100 μL freshly prepared click solution. Click solution comprised of 50 μM CuSO4, 300 μM BTTAA, 2.5 mM sodium ascorbate, and 5 μM azido Si-rhodamine. This was prepared by first adding 0.5 μL 50 mM CuSO4 in H2O and 3 μL 50 mM BTTAA in H2O to 481.5 μL PBS. Next, 12.5 μL freshly prepared 100 mM sodium ascorbate in PBS was added. Finally, 2.5 μL 1 mM azido Si-rhodamine in 4:1 PBS/MeOH was added. After 15 min, the reactions were quenched with the addition of 1 μL of 100 mM bathocuproine disulfonate (BCS) in H2O (final concentration 1 mM). […] For real-time imaging, images were acquired as the labeling progressed without quenching the reaction.
HEK 293T cells were grown in a LabTek 8-well chambered glass slide in DMEM containing fetal bovine serum, penicillin/streptomycin for 3 d at 37° C. The cells were then incubated with 100 nM MitoTracker Green FM and 1 μg/mL Hoechst 33342 in fresh media for 30 min at 37° C., then media removed and the cells incubated with 100 μL PBS containing 5 μM 10. The cells were then directly imaged.
The CalFluors' performance in no-wash cell imaging experiments was evaluated. Using established methods, cell-surface glycoconjugates were metabolically labeled with peracetylated N-pentynoyl mannosamine (Ac4ManNAl), which introduces terminal alkyne groups into sialic acid residues (SiaNAl). HEK 293T cells treated in this fashion were then incubated, without fixation, with a cocktail containing 50 μM CuSO4, 300 μM BTTAA, 5 mM sodium ascorbate and 10 μM CalFluor dye.
Cells were grown with 50 μM Ac4ManNAl or Ac4ManNAc for 3 days, then subjected to click labeling with CalFluor probes. (A) Labeling glycoproteins on live cell surfaces. Cells were treated with 10 μM azide probe, 50 μM CuSO4, 300 μM BTTAA ligand, and 5 mM sodium ascorbate. The reaction was quenched with 1 mM BCS and the cells imaged without further wash steps. (B) Labeling glycoproteins on fixed cells. Cells were fixed with 3% paraformaldehyde, then treated with 10 μM CalFluor probe, 1 mM CuSO4, 100 μM TBTA ligand, and 2 mM sodium ascorbate. 0.1 mg/mL BSA was added to prevent the TBTA from precipitating over the course of the reaction.

[4] = decrease (↓), amine relative to the azide
[5] = increase (↑), triazole relative to the azide

## NC(CNC(=O)OC[C@H]1[C@@H]2CCC#CCC[C@@H]21)C(=O)O (stereo partly drawn) [Compound 13]
[1]
  effect of excess D-alanine on labeling: excess D-alanine decreases the fluorescence intensity

## COc1cc(N=[N+]=[N-])c(OC)c(C2=C3C=CC(=[N+](C)C)C=C3[Si](C)(C)c3cc(N(C)C)ccc32)c1 [Compound 8-N3]
[2]
  λabs: 655 nm
  λem: 669 nm
  Φfl: 0.051

## COc1ccc(N=[N+]=[N-])cc1C1=C2C=CC(=[N+](C)C)C=C2[Si](C)(C)c2cc(N(C)C)ccc21 [Compound 2-N3]
[2]
  λabs: 653 nm
  λem: 667 nm
  Φfl: 0.081

## CN(C)c1ccc2c(c1)[Si](C)(C)C1=CC(=[N+](C)C)C=CC1=C2c1cc(N=[N+]=[N-])ccc1N1CCOCC1 [Compound 3-N3]
[2]
  λabs: 656 nm
  λem: 667 nm
  Φfl: 0.0014

## CN(C)c1ccc2c(c1)[Si](C)(C)C1=CC(=[N+](C)C)C=CC1=C2c1cc(N)ccc1N1CCOCC1 [Compound 3-NH2]
[2]
  λabs: 650 nm
  λem: 672 nm
  Φfl: 0.00096
[2]; [4]
  Change in Φfl: 1.4-fold ↓

## COc1ccc(N)cc1C1=C2C=CC(=[N+](C)C)C=C2[Si](C)(C)c2cc(N(C)C)ccc21 [Compound 2-NH2]
[2]
  λabs: 650 nm
  λem: 669 nm
  Φfl: 0.0025
[2]; [4]
  Change in Φfl: 32-fold ↓

## CN(C)c1ccc2c(c1)[Si](C)(C)C1=CC(=[N+](C)C)C=CC1=C2c1cc(-n2cc(CCC(=O)NCCO)nn2)cc2c1OCCO2 [Compound 5-triazole]
[2]
  λabs: 656 nm
  λem: 668 nm
  Φfl: 0.18
[2]; [5]
  Change in Φfl: 9.5-fold ↑

## CN(C)c1ccc2c(c1)[Si](C)(C)C1=CC(=[N+](C)C)C=CC1=C2c1cc(N)cc2c1OCCO2 [Compound 5-NH2]
[2]
  λabs: 653 nm
  λem: 667 nm
  Φfl: 0.00093
[2]; [4]
  Change in Φfl: 21-fold ↓

## COc1cc(OC)c(C2=C3C=CC(=[N+](C)C)C=C3[Si](C)(C)c3cc(N(C)C)ccc32)cc1N [Compound 9-NH2]
[2]
  λabs: 650 nm
  λem: 664 nm
  Φfl: 0.0014
[2]; [4]
  Change in Φfl: 3.0-fold ↓

## COc1cc(N)c(OC)c(C2=C3C=CC(=[N+](C)C)C=C3[Si](C)(C)c3cc(N(C)C)ccc32)c1 [Compound 8-NH2]
[2]
  λabs: 654 nm
  λem: 672 nm
  Φfl: 0.0012
[2]; [4]
  Change in Φfl: 41-fold ↓

## CN(C)c1ccc2c(c1)[Si](C)(C)C1=CC(=[N+](C)C)C=CC1=C2c1cc(-n2cc(CCC(=O)NCCO)nn2)ccc1N1CCOCC1 [Compound 3-triazole]
[2]
  λabs: 663 nm
  λem: 676 nm
  Φfl: 0.0015
[2]; [5]
  Change in Φfl: 1.1-fold ↑

## CN(C)c1ccc2c(c1)[Si](C)(C)C1=CC(=[N+](C)C)C=CC1=C2c1ccc(N)c2ccccc12 [Compound 1-NH2]
[2]
  λabs: 653 nm
  λem: 669 nm
  Φfl: 0.0016
[2]; [4]
  Change in Φfl: 24-fold ↓

## CN(C)c1ccc2c(c1)[Si](C)(C)C1=CC(=[N+](C)C)C=CC1=C2c1cc(N=[N+]=[N-])cc2[nH]ccc12 [Compound 4-N3]
[2]
  λabs: 660 nm
  λem: 669 nm
  Φfl: 0.0048

## COc1cc(N=[N+]=[N-])cc(C2=C3C=CC(=[N+](C)C)C=C3[Si](C)(C)c3cc(N(C)C)ccc32)c1OC [Compound 6-N3]
[2]
  λabs: 654 nm
  λem: 669 nm
  Φfl: 0.039

## COc1ccc(-n2cc(CCC(=O)NCCO)nn2)cc1C1=C2C=CC(=[N+](C)C)C=C2[Si](C)(C)c2cc(N(C)C)ccc21 [Compound 2-triazole]
[2]
  λabs: 655 nm
  λem: 669 nm
  Φfl: 0.19
[2]; [5]
  Change in Φfl: 2.3-fold ↑

## COc1cc(OC)c(-n2cc(CCC(=O)NCCO)nn2)cc1C1=C2C=CC(=[N+](C)C)C=C2[Si](C)(C)c2cc(N(C)C)ccc21 [2 triazole]
[3]
  Enhancement: 48x^a
  Φfl: 0.20^a
  λem: 668 nm^a
  λmax: 665 nm^a

## CN(C)c1ccc2c(c1)[Si](C)(C)C1=CC(=[N+](C)C)C=CC1=C2c1cc(-n2cc(CCC(=O)NCCO)nn2)cc2[nH]ccc12 [Compound 4-triazole]
[2]
  λabs: 654 nm
  λem: 668 nm
  Φfl: 0.0088
[2]; [5]
  Change in Φfl: 1.8-fold ↑

## COc1cc(OC)c(-n2cc(CCC(=O)NCCO)nn2)cc1C1=C2C=CC(=[N+](C)C)C=C2[Si](C)(C)c2cc(N(C)C)ccc21 [Compound 9-triazole]
[2]
  λabs: 655 nm
  λem: 668 nm
  Φfl: 0.20
[2]; [5]
  Change in Φfl: 48-fold ↑

## COc1cc(N)cc(C2=C3C=CC(=[N+](C)C)C=C3[Si](C)(C)c3cc(N(C)C)ccc32)c1OC [Compound 6-NH2]
[2]
  λabs: 652 nm
  λem: 665 nm
  Φfl: 0.00067
[2]; [4]
  Change in Φfl: 58-fold ↓

## CN(C)c1ccc2c(c1)[Si](C)(C)C1=CC(=[N+](C)C)C=CC1=C2c1cc(N)cc2[nH]ccc12 [Compound 4-NH2]
[2]
  λabs: 650 nm
  λem: 673 nm
  Φfl: 0.00088
[2]; [4]
  Change in Φfl: 5.5-fold ↓

## CN(C)c1ccc2c(c1)[Si](C)(C)C1=CC(=[N+](C)C)C=CC1=C2c1ccc(-n2cc(CCC(=O)NCCO)nn2)c2ccccc12 [Compound 1-triazole]
[2]
  λabs: 656 nm
  λem: 670 nm
  Φfl: 0.19
[2]; [5]
  Change in Φfl: 5.0-fold ↑

## COc1cc(C)c(C2=C3C=CC(=[N+](C)C)C=C3[Si](C)(C)c3cc(N(C)C)ccc32)cc1-n1cc(CCC(=O)NCCO)nn1 [Compound 7-triazole]
[2]
  λabs: 652 nm
  λem: 666 nm
  Φfl: 0.25
[2]; [5]
  Change in Φfl: 3.7-fold ↑

## COc1cc(C)c(C2=C3C=CC(=[N+](C)C)C=C3[Si](C)(C)c3cc(N(C)C)ccc32)cc1N [Compound 7-NH2]
[2]
  λabs: 648 nm
  λem: 669 nm
  Φfl: 0.0015
[2]; [4]
  Change in Φfl: 45-fold ↓

## CN(C)c1ccc2c(c1)[Si](C)(C)C1=CC(=[N+](C)C)C=CC1=C2c1cc(N=[N+]=[N-])cc2c1OCCO2 [Compound 5-N3]
[2]
  λabs: 655 nm
  λem: 668 nm
  Φfl: 0.019

## COc1cc(C2=C3C=CC(=[N+](C)C)C=C3[Si](C)(C)c3cc(N(C)C)ccc32)c(OC)c(-n2cc(CCC(=O)NCCO)nn2)c1 [Compound 8-triazole]
[2]
  λabs: 657 nm
  λem: 671 nm
  Φfl: 0.16
[2]; [5]
  Change in Φfl: 3.2-fold ↑

## COc1cc(-n2cc(CCC(=O)NCCO)nn2)cc(C2=C3C=CC(=[N+](C)C)C=C3[Si](C)(C)c3cc(N(C)C)ccc32)c1OC [Compound 6-triazole]
[2]
  λabs: 656 nm
  λem: 670 nm
  Φfl: 0.18
[2]; [5]
  Change in Φfl: 4.6-fold ↑

## NC(CNC(=O)OC1C#CCCCCC1)C(=O)O (stereo not drawn) [Compound 12]
[1]
  effect of excess D-alanine on labeling: excess D-alanine decreases the fluorescence intensity

## COCCOCCOCCOc1cc(OCCOCCOCCOC)c(C2=C3C=CC(=[N+](C)C)C=C3[Si](C)(C)c3cc(N(C)C)ccc32)cc1N=[N+]=[N-] [Compound 10]
CHO K1 cells; Ac4ManNAl-treated CHO K1, no wash, 15 min
  cell-surface labeling: robust cell-surface labeling
CHO K1 cells; CHO K1, control or unwanted labeling
  background labeling: minimal
HEK 293T cells
  background, intracellular or mitochondrial labeling: mitochondrial staining; also recorded: punctate fluorescence appeared within the cells almost immediately

## COc1cc(C)c(C2=C3C=CC(=[N+](C)C)C=C3[Si](C)(C)c3cc(N(C)C)ccc32)cc1N=[N+]=[N-] [Compound 7-N3]
[2]
  λabs: 650 nm
  λem: 666 nm
  Φfl: 0.066
